Values after ≈ are worked out from the molar mass of the structure shown. Active and inactive are the calls of the source. The rule behind the calls is not given here. Peptide text beside a SMILES is read from it. * marks the point of attachment. Lauroyl = CCCCCCCCCCCC(=O)*; Octanoyl = CCCCCCCC(=O)*
How the values were obtained:
[1] = system: Acinetobacter baumannii; test: Antibacterial activity against Acinetobacter baumannii ATCC 19606 assessed as reduction in bacterial growth incubated for 18 to 24 hrs by broth microdilution method; format: functional; conditions: time 18-24 hrs
[2] = system: Staphylococcus aureus; test: Antibacterial activity against Staphylococcus aureus 125 assessed as reduction in bacterial growth incubated for 18 to 24 hrs by broth microdilution method; format: functional; conditions: time 18-24 hrs
[3] = system: Staphylococcus aureus; test: Antibacterial activity against Staphylococcus aureus 794 assessed as reduction in bacterial growth incubated for 18 to 24 hrs by broth microdilution method; format: functional; conditions: time 18-24 hrs
[4] = system: Staphylococcus epidermidis; test: Antibacterial activity against Staphylococcus epidermidis ATCC 12228 assessed as reduction in bacterial growth incubated for 18 to 24 hrs by broth microdilution method; format: functional; conditions: time 18-24 hrs
[5] = system: Bacillus subtilis; test: Antibacterial activity against Bacillus subtilis ATCC 23857 assessed as reduction in bacterial growth incubated for 18 to 24 hrs by broth microdilution method; format: functional; conditions: time 18-24 hrs
[6] = system: Staphylococcus aureus; test: Antibacterial activity against Staphylococcus aureus ATCC 25923 assessed as reduction in bacterial growth incubated for 18 to 24 hrs by broth microdilution method; format: functional; conditions: time 18-24 hrs
[7] = system: Acinetobacter baumannii; test: Antibacterial activity against Acinetobacter baumannii 5444 assessed as reduction in bacterial growth incubated for 18 to 24 hrs by broth microdilution method; format: functional; conditions: time 18-24 hrs
[8] = system: Escherichia coli; test: Antibacterial activity against Escherichia coli 850 assessed as reduction in bacterial growth incubated for 18 to 24 hrs by broth microdilution method; format: functional; conditions: time 18-24 hrs
[9] = system: Escherichia coli; test: Antibacterial activity against Escherichia coli 780 assessed as reduction in bacterial growth incubated for 18 to 24 hrs by broth microdilution method; format: functional; conditions: time 18-24 hrs
[10] = system: Pseudomonas aeruginosa; test: Antibacterial activity against Pseudomonas aeruginosa 6434N assessed as reduction in bacterial growth incubated for 18 to 24 hrs by broth microdilution method; format: functional; conditions: time 18-24 hrs
[11] = system: Staphylococcus aureus; test: Antibacterial activity against Staphylococcus aureus assessed as reduction in survival bacterial growth in presence of <=2 ug/ml chymotrypsin measured after1 hr by absorbance based analysis; format: functional, organism-based; conditions: time 1.0 hrs
[12] = system: Escherichia coli; test: Antibacterial activity against Escherichia coli assessed as reduction in survival bacterial growth in presence of KCl measured after 18 to 24 hrs (reference value: 8 microM); format: functional; conditions: time 18-24 hrs
[13] = system: Escherichia coli; test: Antibacterial activity against Escherichia coli assessed as reduction in survival bacterial growth in presence of FeCl3 measured after 18 to 24 hrs (reference value: 8 microM); format: functional; conditions: time 18-24 hrs
[14] = system: Staphylococcus aureus; test: Antibacterial activity against Staphylococcus aureus assessed as reduction in survival bacterial growth by measuring fold change in presence of FeCl3 measured after 18 to 24 hrs; format: functional; conditions: time 18-24 hrs
[15] = system: Escherichia coli; test: Antibacterial activity against Escherichia coli assessed as reduction in survival bacterial growth by measuring fold change in presence of ZnCl2 measured after 18 to 24 hrs; format: functional; conditions: time 18-24 hrs
[16] = system: Staphylococcus aureus; test: Induction of morphological changes in Staphylococcus aureus assessed as cell foaming at 2 times MIC measured after 30 mins by SEM analysis; format: functional, organism-based
[17] = system: Klebsiella pneumoniae; test: Induction of morphological changes in Klebsiella pneumoniae assessed as cell contraction at 2 times MIC measured after 30 mins by SEM analysis; format: functional, organism-based
[18] = system: Klebsiella pneumoniae; test: Induction of morphological changes in Klebsiella pneumoniae assessed as cell aggregation at 2 times MIC measured after 120 mins by SEM analysis; format: functional, organism-based
[19] = system: Cell membrane; test: Induction of inner membrane permeabilization in Escherichia coli at 4 times MIC measured for 135 mins by absorbance based analysis
[20] = system: Cell membrane; test: Induction of inner membrane permeabilization in Escherichia coli at 2 times MIC measured for 135 mins by absorbance based analysis
[21] = system: Cell membrane; test: Induction of cytoplasmic membrane depolarization in Escherichia coli assessed as increase in fluorescence intensity at 4 times MIC measured for 10 mins by DiSC3-5 dye based fluorescence assay
[22] = system: Staphylococcus aureus; test: Antibacterial activity against Staphylococcus aureus 25923 at sub-MIC concentration measured after 15 passages in presence of rifampin; format: functional, organism-based
[23] = system: Staphylococcus aureus; test: Synergistic antibacterial activity against Staphylococcus aureus 25923 measured after 18 hrs in presence of polymyxin B by absorbance based analysis; format: functional, organism-based
[24] = system: Staphylococcus aureus; test: Synergistic antibacterial activity against Staphylococcus aureus 113 measured after 18 hrs in presence of polymyxin B by absorbance based analysis; format: functional, organism-based
[25] = system: Staphylococcus aureus; test: Synergistic antibacterial activity against Staphylococcus aureus 113 measured after 18 hrs in presence of cephalothin by absorbance based analysis; format: functional, organism-based
[26] = system: Staphylococcus aureus; test: Synergistic antibacterial activity against Staphylococcus aureus 113 measured after 18 hrs in presence of streptomycin by absorbance based analysis; format: functional, organism-based
[27] = system: Staphylococcus aureus; test: Synergistic antibacterial activity against methicillin-resistant Staphylococcus aureus measured after 18 hrs in presence of polymyxin B by absorbance based analysis; format: functional, organism-based
[28] = system: Staphylococcus aureus; test: Synergistic antibacterial activity against methicillin-resistant Staphylococcus aureus measured after 18 hrs in presence of streptomycin by absorbance based analysis; format: functional, organism-based
[29] = system: Staphylococcus aureus; test: Additive antibacterial activity against methicillin-resistant Staphylococcus aureus assessed as fractional inhibitory in presence of cephalothin by checker board assay; format: functional
[30] = system: Staphylococcus aureus; test: Additive antibacterial activity against Staphylococcus aureus 113 assessed as fractional inhibitory in presence of cephalothin by checker board assay; format: functional
[31] = system: Staphylococcus aureus; test: Synergistic antibacterial activity against Staphylococcus aureus 25923 assessed as fractional inhibitory in presence of streptomycin by checker board assay; format: functional
[32] = system: Staphylococcus aureus; test: Additive antibacterial activity against Staphylococcus aureus 113 assessed as fractional inhibitory in presence of streptomycin by checker board assay; format: functional
[33] = Acute toxicity in male BALB/c mouse assessed lethal dose administered as ip dose measured for 7 days; format: organism-based; conditions: in vivo, time 7 day
[34] = Potency index, ratio of polymyxin B to test compound for acute toxicity in BALB/c mouse assessed lethal dose administered as ip dose measured for 7 days; format: organism-based; conditions: in vivo, 168 h, time 7 day
[35] = Acute toxicity in male BALB/c mouse assessed effect on edema in kidney at 100 to 130 mg/kg, ip measured after 7 days by H and E staining based analysis; format: organism-based; conditions: in vivo, 168 h, dose 100-130 mg/kg, time 7 day
[36] = system: Klebsiella pneumoniae; test: Antibacterial activity against Klebsiella pneumoniae ATCC 700603 infected in male BALB/c mouse lung infection model assessed as reduction in bacterial load at 5 mg/kg, ip measured after 6 to 36 hrs (reference value: 1.77 10^6CFU/mg); format: functional; conditions: time 6-36 hrs
[37] = system: Klebsiella pneumoniae; test: Antibacterial activity against Klebsiella pneumoniae ATCC 700603 infected in male BALB/c mouse lung infection model assessed as expansion of lung alveoli at 5 mg/kg, ip measured after 6 to 36 hrs; format: functional, organism-based; conditions: time 6-36 hrs
[38] = system: Staphylococcus aureus; test: Antibacterial activity against methicillin resistant Staphylococcus aureus infected in male BALB/c mouse model of skin wound infection assessed as reduction in wound area at 2 mg/kg, ip measured after 6 to 36 hrs postinfection; format: functional, organism-based; conditions: time 6-36 hrs
[39] = system: Escherichia coli; test: Antibacterial activity against Escherichia coli assessed as reduction in survival bacterial growth in presence <=0.02 ug/ml of trypsin measured after1 hr by absorbance based analysis; format: functional, organism-based; conditions: time 1.0 hrs
[40] = system: Cell membrane; test: Induction of outer membrane permeabilization in Escherichia coli assessed as increase in fluorescence intensity at 1 times MIC measured for 10 mins by fluorescence based NPN uptake assay
[41] = Acute toxicity in male BALB/c mouse assessed inflammatory cell infiltration in kidney at 100 to 130 mg/kg, ip measured after 7 days by H and E staining based analysis; format: organism-based; conditions: in vivo, 168 h, dose 100-130 mg/kg, time 7 day

Compound	MIC [1] [µM]	MIC [2] [µM]	MIC [3] [µM]	MIC [4] [µM]	MIC [5] [µM]	MIC [6] [µM]	MIC [7] [µM]	MIC [8] [µM]	MIC [9] [µM]	MIC [10] [µM]	Activity [11]	MIC [12] [µM]	MIC [13] [µM]	fold change (FC) [14]	fold change (FC) [15]	Activity [16]	Activity [17]	Activity [18]	Activity [19]	Activity [20]	also measured
CCCCCCCCCCCC(=O)N[C@@H](CCCCN)C(=O)N[C@@H](CCCCN)C(=O)N[C@@H](Cc1c[nH]c2ccccc12)C(=O)N[C@@H](Cc1c[nH]c2ccccc12)C(N)=O (Lauroyl-KKWW-NH2)	16 (≈ 13.2 µg/mL)	4 (≈ 3.31 µg/mL)	4 (≈ 3.31 µg/mL)	4 (≈ 3.31 µg/mL)	2 (≈ 1.66 µg/mL)	4 (≈ 3.31 µg/mL)	16 (≈ 13.2 µg/mL)	8 (≈ 6.62 µg/mL)	8 (≈ 6.62 µg/mL)	8 (≈ 6.62 µg/mL)	Active	4	8	2	2	Active	Active	Active; Compound Showed More Pronounced Effect Compared To 30 Mins Incubation Time	Active; Compound Showed Stronger Effect Than Positive Control 0.1% Tritonx-100	Active; Compound Showed Higher Permeability Than Positive Control 0.1% Tritonx-100	Activity [21]: Active; Compound Showed Pronounced Effect Than Quality Control Polymyxin B; Activity [22]: Active; Activity [23]: Active; Activity [24]: Active; Activity [25]: Active; Activity [26]: Active; Activity [27]: Active; Activity [28]: Active; fractional inhibitory concentration index (FICI) [29]: 0.75; fractional inhibitory concentration index (FICI) [30]: 0.562; fractional inhibitory concentration index (FICI) [31]: 0.187; fractional inhibitory concentration index (FICI) [32]: 0.562; LD50 at 168 h [33]: 114 mg/kg; Ratio [34]: 4.84; Activity [35]: Non-toxic; Activity [36]: 2.4 10^4CFU/mg; Activity [37]: Active; Activity [38]: Active
CCCCCCCC(=O)NCCCC[C@H](NC(=O)CCCCCCC)C(=O)N[C@@H](CCCCN)C(=O)N[C@@H](CCCCN)C(=O)N[C@@H](Cc1c[nH]c2ccccc12)C(=O)N[C@@H](Cc1c[nH]c2ccccc12)C(N)=O (Octanoyl-K(Octanoyl)KKWW-NH2)	16 (≈ 16.4 µg/mL)	8 (≈ 8.21 µg/mL)	16 (≈ 16.4 µg/mL)	8 (≈ 8.21 µg/mL)	8 (≈ 8.21 µg/mL)	8 (≈ 8.21 µg/mL)	16 (≈ 16.4 µg/mL)	8 (≈ 8.21 µg/mL)	8 (≈ 8.21 µg/mL)	16 (≈ 16.4 µg/mL)	Active	8	8	2	2	Active	Active	Active; Compound Showed More Pronounced Effect Compared To 30 Mins Incubation Time	Active; Compound Showed Stronger Effect Than Positive Control 0.1% Tritonx-100	Active	Activity [39]: Active; Activity [40]: Active; Activity [21]: Active; Compound Showed Pronounced Effect Than Quality Control Polymyxin B; Activity [23]: Active; Activity [24]: Active; Activity [25]: Active; Activity [26]: Active; Activity [27]: Active; Activity [28]: Active; fractional inhibitory concentration index (FICI) [29]: 0.562; fractional inhibitory concentration index (FICI) [30]: 0.562; fractional inhibitory concentration index (FICI) [31]: 0.312; fractional inhibitory concentration index (FICI) [32]: 0.75; LD50 at 168 h [33]: 113 mg/kg; Ratio [34]: 4.78; Activity [41]: Non-toxic; Activity [36]: 1.66 10^4CFU/mg; Activity [37]: Active; Activity [38]: Active
